Assay results as given in patent US20220323406A1, “METHODS AND COMPOSITIONS FOR DIFFERENTIATING STEM CELLS” (Massachusetts Institute of Technology, priority 2019, published 2022).

Tests used:
[1] = test system: ENR+CD organoids (ISC to Paneth cell differentiation); assay: Primary screen: CCh-stimulated lysozyme secretion LYZ.S, 2.5-D 384-well ENR+CD organoid differentiation; assay type: cell-based, mouse; details: primary screen
Text: (§1) High-throughput screening.

[2] = test system: ENR+CD organoids (ISC to Paneth cell differentiation); assay: Primary screen: basal (non-stimulated) lysozyme secretion LYZ.NS, 2.5-D 384-well ENR+CD organoid differentiation; assay type: cell-based, mouse; details: primary screen; for Z.LYZ.NS: standard z score
Text: as §1

ENR+CD organoids = assay: Primary screen: ATP (CellTiter-Glo 3D, CTG) cell number/viability, 2.5-D 384-well ENR+CD organoids; details: primary screen; for Z.CTG: standard z score;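 on all read-outs here: compounds given at plating and again on day 3 over a 6-day differentiation from ENR+CV stem-cell-enriched precursors, ATP measured on day 6, plate median as control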
[3] = dose 0.08 uM, FC relative to plate median
[4] = dose 0.40 uM, FC relative to plate median
[5] = dose 2.00 uM, FC relative to plate median
[6] = dose 10.00 uM, FC relative to plate median
[7] = dose 0.08 uM, FC vs plate median
[8] = dose 0.40 uM, FC vs plate median
[9] = dose 2.00 uM, FC vs plate median
[10] = dose 10.00 uM, FC vs plate median

Compound | Dose.FC.LYZ.S (log2 fold change) ([1]; dose 0.08 uM) | Dose.FC.LYZ.S (log2 fold change) ([1]; dose 0.40 uM) | Dose.FC.LYZ.S (log2 fold change) ([1]; dose 2.00 uM) | Dose.FC.LYZ.S (log2 fold change) ([1]; dose 10.00 uM) | Dose.FC.LYZ.NS (log2 fold change) ([2]; dose 0.08 uM) | Z.LYZ.NS (standard z score) ([2]; dose 0.08 uM) | Dose.FC.LYZ.NS (log2 fold change) ([2]; dose 0.40 uM) | Z.LYZ.NS (standard z score) ([2]; dose 0.40 uM) | Dose.FC.LYZ.NS (log2 fold change) ([2]; dose 2.00 uM) | Z.LYZ.NS (standard z score) ([2]; dose 2.00 uM) | Dose.FC.LYZ.NS (log2 fold change) ([2]; dose 10.00 uM) | Z.LYZ.NS (standard z score) ([2]; dose 10.00 uM) | Dose.FC.CTG (log2 fold change) (ENR+CD organoids; dose 0.08 uM) | Z.CTG (standard z score) (ENR+CD organoids; dose 0.08 uM) | Dose.FC.CTG (log2 fold change) (ENR+CD organoids; dose 0.40 uM) | Z.CTG (standard z score) (ENR+CD organoids; dose 0.40 uM) | Dose.FC.CTG (log2 fold change) (ENR+CD organoids; dose 2.00 uM) | Z.CTG (standard z score) (ENR+CD organoids; dose 2.00 uM) | Dose.FC.CTG (log2 fold change) (ENR+CD organoids; dose 10.00 uM) | Z.CTG (standard z score) (ENR+CD organoids; dose 10.00 uM) | further results
Clc1ccc(N/N=C(\c2ccccc2)c2ccccn2)nc1 [JIB-04] | 0.203 | 0.084 | −0.056 | −0.085 | 0.178 | 1.549 | 0.030 | 0.264 | 0.006 | 0.048 | −0.153 | −1.330 | 0.254 | 0.607 | 0.108 | 0.258 | 0.092 | 0.219 | −0.181 | −0.433 | 
COc1c(C)c(C(=O)c2ccc(N)c(C(=O)[O-])c2)n2ccccc12.[Na+] [SSR128129E] |  |  |  |  |  |  |  |  |  |  |  |  |  |  |  |  |  |  |  |  | Dose.FC.LYZ.S [1, 3]: 0.086 log2 fold change; Dose.FC.LYZ.S [1, 4]: 0.122 log2 fold change; Dose.FC.LYZ.S [1, 5]: 0.023 log2 fold change; Dose.FC.LYZ.S [1, 6]: −0.095 log2 fold change; Dose.FC.LYZ.NS [2, 3]: 0.093 log2 fold change; Z.LYZ.NS ([2]; dose 0.08 uM): 0.807; Dose.FC.LYZ.NS [2, 4]: 0.039 log2 fold change; Z.LYZ.NS ([2]; dose 0.40 uM): 0.339; Dose.FC.LYZ.NS [2, 5]: 0.030 log2 fold change; Z.LYZ.NS ([2]; dose 2.00 uM): 0.257; Dose.FC.LYZ.NS [2, 6]: −0.098 log2 fold change; Z.LYZ.NS ([2]; dose 10.00 uM): −0.850; Dose.FC.CTG (ENR+CD organoids; [3]): 0.088 log2 fold change; Z.CTG (ENR+CD organoids; dose 0.08 uM): 0.210; Dose.FC.CTG (ENR+CD organoids; [4]): 0.228 log2 fold change; Z.CTG (ENR+CD organoids; dose 0.40 uM): 0.545; Dose.FC.CTG (ENR+CD organoids; [5]): 0.122 log2 fold change; Z.CTG (ENR+CD organoids; dose 2.00 uM): 0.291; Dose.FC.CTG (ENR+CD organoids; [6]): −0.026 log2 fold change; Z.CTG (ENR+CD organoids; dose 10.00 uM): −0.063
Oc1cc(O)cc(/C=C/c2ccc(O)c(O)c2)c1 [Piceatannol] |  |  |  |  |  |  |  |  |  |  |  |  |  |  |  |  |  |  |  |  | Dose.FC.LYZ.S [1, 7]: 0.094 log2 fold change; Dose.FC.LYZ.S [1, 8]: 0.045 log2 fold change; Dose.FC.LYZ.S [1, 9]: 0.016 log2 fold change; Dose.FC.LYZ.S [1, 10]: −0.104 log2 fold change; Z.LYZ.NS ([2]; dose 0.08 uM): 0.698; Z.LYZ.NS ([2]; dose 0.40 uM): 0.375; Z.LYZ.NS ([2]; dose 2.00 uM): 0.221; Z.LYZ.NS ([2]; dose 10.00 uM): −0.184; Dose.FC.LYZ.NS [2, 7]: 0.080 log2 fold change; Dose.FC.LYZ.NS [2, 8]: 0.043 log2 fold change; Dose.FC.LYZ.NS [2, 9]: 0.025 log2 fold change; Dose.FC.LYZ.NS [2, 10]: −0.021 log2 fold change; Dose.FC.CTG (ENR+CD organoids; [7]): 0.232 log2 fold change; Dose.FC.CTG (ENR+CD organoids; [8]): −0.090 log2 fold change; Dose.FC.CTG (ENR+CD organoids; [9]): 0.074 log2 fold change; Dose.FC.CTG (ENR+CD organoids; [10]): −0.071 log2 fold change
HA14-1 | 0.190 | 0.316 | 0.170 | 0.149 | 0.121 | 1.052 | 0.137 | 1.195 | 0.154 | 1.345 | 0.132 | 1.151 | 0.534 | 1.276 | 0.526 | 1.255 | 0.554 | 1.323 | 0.388 | 0.926 | 
CCn1c(-c2nonc2N)nc2c(C#CC(C)(C)O)ncc(OC[C@H]3CCCNC3)c21 [GSK690693] | 0.019 | 0.155 | 0.124 | −0.153 | 0.045 | 0.388 | 0.047 | 0.409 | 0.122 | 1.060 | −0.080 | −0.698 | 0.129 | 0.308 | 0.197 | 0.470 | −0.027 | −0.064 | −0.182 | −0.434 | 
